From BigSolDB 2.1

CC(C)(C)c1ccc(OP2OCC3(CO2)COP(Oc2ccc(C(C)(C)C)cc2C(C)(C)C)OC3)c(C(C)(C)C)c1 (stereo not drawn)
Settings | solubility (mole fraction)
in ethanol, 303.25 K | 0.000185
in ethanol, 308.15 K | 0.000249
in ethanol, 312.85 K | 0.000324
in ethanol, 318.15 K | 0.000365
in ethanol, 322.95 K | 0.000426
in ethanol, 328.15 K | 0.000534
in ethanol, 332.15 K | 0.000669
in isopropanol, 304.15 K | 0.000296
in isopropanol, 308.35 K | 0.000371
in isopropanol, 313.15 K | 0.000473
in isopropanol, 318.25 K | 0.000657
in isopropanol, 323.15 K | 0.000752
in isopropanol, 327.95 K | 0.00113
in isopropanol, 333.35 K | 0.00163
in methanol, 304.65 K | 5.05e-05
in methanol, 308.25 K | 5.84e-05
in methanol, 312.95 K | 7.84e-05
in methanol, 318.15 K | 0.000119
in methanol, 322.65 K | 0.000154
in n-propanol, 303.15 K | 0.000477
in n-propanol, 308.15 K | 0.000582
in n-propanol, 313.05 K | 0.000735
in n-propanol, 318.25 K | 0.000925
in n-propanol, 322.75 K | 0.00113
in n-propanol, 327.95 K | 0.00146
in n-propanol, 333.15 K | 0.00182
in tert-butanol, 302.95 K | 0.000674
in tert-butanol, 308.05 K | 0.000853
in tert-butanol, 313.15 K | 0.0012
in tert-butanol, 318.45 K | 0.00157
in tert-butanol, 323.05 K | 0.00222
in tert-butanol, 328.45 K | 0.00302
in tert-butanol, 332.95 K | 0.00379
